Test results from patent publication US20030055046A1, “Novel pyrido cyclohexenyl phenyl carboxamides tocolytic oxytocin receptor antagonists” (Wyeth, priority 2001, published 2003).
pIC50: −log10 of the molar value. Counter-ions that a name gives are not always drawn.

The compounds below were run against T1, human oxytocin receptor (Homo sapiens, UniProt P30559) (assay: Oxytocin binding in CHO cell membranes expressing human oxytocin receptors). Conditions: 100 nM, [3H]oxytocin.
T1 construct: host or cells: CHO cells, stably transfected (pcDNA3.1 vector)
T1 sequence (P30559 1-389): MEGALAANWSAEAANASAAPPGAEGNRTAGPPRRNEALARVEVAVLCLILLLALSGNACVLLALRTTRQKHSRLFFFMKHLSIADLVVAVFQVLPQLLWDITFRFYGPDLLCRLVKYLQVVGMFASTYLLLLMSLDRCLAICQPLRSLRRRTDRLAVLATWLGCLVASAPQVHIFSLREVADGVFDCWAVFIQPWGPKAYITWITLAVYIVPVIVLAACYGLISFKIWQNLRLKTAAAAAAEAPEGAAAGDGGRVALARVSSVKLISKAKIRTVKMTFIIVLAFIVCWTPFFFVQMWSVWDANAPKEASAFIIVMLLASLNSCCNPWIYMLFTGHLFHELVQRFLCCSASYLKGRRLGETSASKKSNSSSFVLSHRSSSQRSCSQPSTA
Source text: Oxytocin binding in Chinese Hamster Ovary cell membranes expressing human oxytocin receptors
Chinese Hamster Ovary (CHO) cells stably transfected with the human oxytocin (cf. Tanizawa et al., U.S. Pat. No. 5,466,584 (1995) to Rohto Pharmaceutical Co. Ltd., Osaka, Japan) were obtained from M. Thibonnier, Case Western Reserve University School of Medicine, Cleveland, Ohio.
A. Passaging and Amplification of Cells:
CHO cells transfected with the human oxytocin receptors obtained from M. Thibonnier (pcDNA3.1 vector) are allowed to grow to confluency (approx. >90%) in T-150 flasks under sterile conditions, in a cell culture medium consisting of F-12 Nutrient Mixture (HAM) with L-glutamine (Gibco Cat.# 11765-054) containing 15 mM HEPES (Gibco Cat.# 15630-080), 1% antibiotic/antimycotic (add 5 mL 100×, Gibco Cat.# 15240-062 per 500 mL F-12), 400 μg/mL of Geneticin (add 4 mL of 50 mg/mL per 500 mL F-12) and 10% Fetal Bovine Serum (Qualified, heat inactivated, Gibco Cat.# 16140-063). The medium is removed by aspiration and the cells are washed with 10 mL of Hank's Balanced Salt solution (Gibco Cat.# 14175-095). The salt solution is removed by aspiration and the cells trypsinized with 5 mL of trypsin-EDTA (0.05% trypsin, 0.53 mM EDTA-4Na, Gibco Cat.# 25300-070) for 1 min The trypsin is removed by aspiration and the cells dislodged by tapping. Cell Culture medium (e.g. 30 mL for 1:30 split) is immediately added and mixed well to inactivate trypsin. 1 mL of detached cells is added to new culture flasks containing fresh Cell Culture medium (e.g. into 25 mL per T-150 flask), and mixed gently. The cells are incubated at 37° C. in 5% CO2. The medium is changed at 3 to 4 days interval (or as appropriate). The cells grow to confluency (approx. >75%-95%) within 7-8 days. All steps are done under sterile conditions.
The cells are washed twice gently with Hank's Balanced Salt solution (eg, use 10 mL per T-150 flask). The excess solution is removed and the cells bathed for 15-30 min. in an enzyme-free Cell Dissociation Buffer (eg, use 8 mL Hank's Based, Gibco Cat.# 13150-016 per T-150 flask) until cells are loosened. The contents are transferred to centrifuge tubes (50 mL size) kept in ice bath. All subsequent steps are done at 4° C. The tubes are centrifuged at 300×g for 15 min (1380 rpm on SORVAL, Model RT6000D, using rotor for 50 mL tubes). The supernatant is discarded and the cells suspended in homogenizing buffer (10 mM Tris-HCl containing 0.25 M sucrose and 1 mM EDTA, pH 7.4) ensuring that the volume of the buffer is about ten times the volume of the cell pellet. The cells are pooled into a centrifuge tube (50 mL) and homogenized with a Polytron at setting 6 for 10 sec. The homogenate is transferred into a Potter-Elvjehm homogenizer and homogenized with 3 strokes. The homogenate is centrifuged at 1500×g for 10 min at 4° C. (3100 rpm using SORVAL, model RT6000D, using rotor for 50 mL tubes). The pellet is discarded. The supernatant is centrifuged at 100,000×g for 60 min. at 4° C. (Beckman L8-80M ultracentrifuge; spin at 37,500 rpm with rotor type 70 Ti for 50 mL tubes; 38,000 rpm with type 80Ti for 15 mL tubes; or 35,800 rpm with rotor type 45Ti). The supernatant is discarded and the pellet suspended in 3 to 4 mL of Tris buffer (50 mM TRIS-HCl, pH 7.4). The protein content is estimated by the Bradford or Lowry method. The volume of the membrane suspension is adjusted with the membrane buffer (50 mM Tris-HCl containing 0.1 % BSA and 0.1 mM PMSF) to give 3.0 mg/mL (or as appropriate) of protein. The membranes are aliquoted and stored at −70° C.
C. Radioligand Binding Assay:
In wells of a 96-well format microtiter plate, is added 90, 110 or 130 μL (to make up a final volume of 200 μL) of assay buffer containing 50 mM of Tris-HCl (pH 7.4), […], 1 mg % aprotinin, 1 mg % leupeptin, 2 mg % 1,10-phenanthroline, 10 mg % trypsin inhibitor, and 0.1 mM PMSF. […]

Compared with `Cc1cc(C(=O)N2Cc3ccc(C(=O)N4CCN(c5ccccn5)CC4)n3Cc3ccccc32)ccc1C1=CCCCC1` [Example 9, {10-[4-(1-Cyclohex-1-en-1-yl)-3-methylbenzoyl]-10,11-dihydro-5H-pyrrolo[2,1-c][1,4]benzodiazepin-3-yl}[4-(2-pyridinyl)-1-piperazinyl]methanone], `Cc1cc(C(=O)N2Cc3ccc(C(=O)N4CCN(c5ccncc5)CC4)n3Cc3ccccc32)ccc1C1=CCCCC1` [Example 12, {10-[4-(1-Cyclohex-1-en-1-yl)-3-methylbenzoyl]-10,11-dihydro-5H-pyrrolo[2,1--c][1,4]benzodiazepin-3-yl}[4-(4-pyridinyl)-1-piperazinyl]methanone] is higher in “OT % inhibition @ 100 nM” value: 37% for the first, 98% for the second.

Compared with `CC1=C(c2ccc(C(=O)N3Cc4ccc(C(=O)N(C)Cc5cccnc5)n4Cc4ccccc43)cc2C)CCC[C@H]1O.O=C(O)C(O)C(O)C(=O)O` [Example 4, 10-[4-((3R)-3-Hydroxy-2-methyl-cyclohex-1-en-1-yl)-3-methyl-benzoyl]-10,11-dihydro-5H-pyrrolo[2,1-c][1,4]benzodiazepine-3-carboxylic acid methyl-pyridin-3-yl methyl-amide L-(+)-tartaric acid salt], `CC1=C(c2ccc(C(=O)N3Cc4ccc(C(=O)N(C)Cc5cccnc5)n4Cc4ccccc43)cc2C)CCC[C@H]1O` [Example 3, 10-[4-((3R)-3-Hydroxy-2-methyl-cyclohex-1-en-1-yl)-3-methyl-benzoyl]-10,11-dihydro-5H-pyrrolo[2,1-c][1,4]benzodiazepine-3-carboxylic acid methyl-pyridin-3-yl methyl-amide] is lower in “OT % inhibition @ 100 nM” value: 99% for the first, 96% for the second.

Going from `Cc1cc(C(=O)N2Cc3ccc(C(=O)NCc4ccccn4)n3Cc3ccccc32)ccc1C1=CCCCC1` [Example 5, 10-[4-(1-Cyclohex-1-en-1-yl)-3-methylbenzoyl]-N-(2-pyridinylmethyl)-10,11-dihydro-5H-pyrrolo[2,1-c][1,4]benzodiazepine-3-carboxamide] to `Cc1cc(C(=O)N2Cc3ccc(C(=O)NCCc4ccccn4)n3Cc3ccccc32)ccc1C1=CCCCC1` [Example 7, 10-[4-(1-Cyclohex-1-en-1-yl)-3-methylbenzoyl]-N-[2-(2-pyridinyl)ethyl]-10,11-pyrrolo[2,1-c][1,4]benzodiazepine-3-carboxamide], the “OT % inhibition @ 100 nM” value rises from 34% to 42%.

Compared with `Cc1cc(C(=O)N2Cc3ccc(C(=O)NCc4ccncc4)n3Cc3ccccc32)ccc1C1=CCCCC1` [Example 10, 10-[4-(1-Cyclohex-1-en-1-yl)-3-methylbenzoyl]-N-(4-pyridinylmethyl)-10,11-dihydro-5H-pyrrolo[2,1-c][1,4]benzodiazepine-3-carboxamide], `Cc1cc(C(=O)N2Cc3ccc(C(=O)NCc4cccnc4)n3Cc3ccccc32)ccc1C1=CCCCC1` [Example 6, 10-[4-(1-Cyclohex-1-en-1-yl)-3-methylbenzoyl]-N-(3-pyridinylmethyl)-10,11-dihydro-5H-pyrrolo[2,1-c][1 ,4]benzodiazepine-3-carboxamide] is lower in “OT % inhibition @ 100 nM” value: 45% for the first, 31% for the second.

First: Cc1cc(C(=O)N2Cc3ccc(C(=O)N(C)Cc4cccnc4)n3Cc3ccccc32)ccc1C1=CCCCC1 [Example 11, 10-[4-(1-Cyclohex-1-en-1-yl)-3-methylbenzoyl]-N-methyl-N-(3-pyridinylmethyl)-10,11-dihydro-5H-pyrrolo[2,1-c][1,4]benzodiazepine-3-carboxamide]
Second: Cc1cc(C(=O)N2Cc3ccc(C(=O)N(C)CCc4ccncc4)n3Cc3ccccc32)ccc1C1=CCCCC1 [Example 13, 10-[4-(1-Cyclohex-1-en-1-yl)-3-methylbenzoyl]-N-methyl-N-[2-(4-pyridinyl)ethyl]-10,11-dihydro-5H-pyrrolo[2,1-c][1,4]benzodiazepine-3-carboxamide]
The “OT % inhibition @ 100 nM” value of the first is lower: 87% for the first, 95% for the second.

For `Cc1cc(C(=O)N2Cc3ccc(C(=O)N(C)CCc4ccccn4)n3Cc3ccccc32)ccc1C1=CCCCC1` [Example 8, 10-[4-(1-Cyclohex-1-en-1-yl)-3-methylbenzoyl]-N-methyl-N-[2-(2-pyridinyl)ethyl]-10,11-dihydro-5H-pyrrolo[2,1-c][1 ,4]benzodiazepine-3-carboxamide], the “OT % inhibition @ 100 nM” value was 84%.

Same assay, conditions: [3H]oxytocin, value in parentheses, read-out: OT IC50

`COc1cc(C2=CCCCC2)c(Cl)cc1C(=O)N1Cc2ccc(C(=O)N(C)Cc3cccnc3)n2Cc2ccccc21` [Example 1, 10-(5-Chloro-4-cyclohex-1-en-1-yl-2-me3thoxybenzoyl)-N-methyl-N-(pyridin-3-ylmethyl)-10,11-dihydro-5H-pyrrolo [2,1-c][1,4]benzodiazepine-3-carboxamide] showed a pIC50 of 8.35.
`COc1cc(C2=CCCCC2)c(Cl)cc1C(=O)N1Cc2ccc(C(=O)N(C)Cc3cccnc3)n2Cc2ccccc21` [Example 2, 10-(5-Chloro-4-cyclohex-1-en-1-yl-2-methoxybenzoyl)-N-methyl-N-(pyridin-3-ylmethyl)-10,11-dihydro-5H-pyrrolo[2,1-c][1,4]benzodiazepine-3-carboxamide L-(+)-tartaric acid salt hemihydrate] showed a pIC50 of 8.50.
